US12721537B2, “System and method for measuring blood flow velocity on a microfluidic chip” (CASE WESTERN RESERVE UNIVERSITY, priority 2020, dated 2026)

Legend:
citrate whole blood = experiment: Thrombin-induced thrombus formation in a microchannel; assay type: cell-based; details: citrate whole blood reconstituted with 16.7 μM calcium chloride only
Excerpt: The influence of clotting disorders and therapies can be assessed in a case study using elevated levels of thrombin to promote coagulation. […] It is hypothesized that elevated levels of thrombin will produce distinctive, quantifiable effects on the evolution of the blood flow and the associated formation and growth of thrombi, and these experiments will allow us to assess the ability of our model to identify those effects. Additionally, the effect of heparin, a common anticoagulant therapy, on the blood flow will be evaluated by adding heparin into the blood samples at appropriate doses.

whole blood = details: sodium citrate whole blood recalcified to 100 mM CaCl2, constant inlet pressure 20 mBar, PIV
Experimental: The whole blood sample for this example was drawn into a 3.2% sodium citrate containing vacutainer from a single healthy donor under an Institutional review board-approved protocol. The blood sample was stored at 4° C. upon collection and was processed within 24 h. […] Prior to the experiment, the whole blood sample was recalcified with the stock solution to obtain a final concentration of 100 mM CaCl2. […] The control experiment was performed by mixing the whole blood sample with PBS. Thereafter, the mixed blood sample was immediately injected into the microfluidic channel at a constant inlet pressure of 20 mBar by means of a Flow-EZ pressure control unit (Fluigent Inc., North Chelmsford, MA), as shown in FIG. 2. The constant supply pressure implies that the flow rate is reduced as the blood coagulates. The maximum initial shear rate was approximately 10 s^−1, and the shear rate reduced to zero as the flow slowed and eventually stopped due to microchannel blockage as coagulation occurred. The microfluidic channel was placed on an inverted microscope (Olympus IX83), and a video was recorded simultaneously under 4× magnification using a high-resolution camera (EXi Blue EXI-BLU-R-F-M-14-C) at 10 frames per second as soon as the flow was started. The field of view was centered on the microfluidic channel, and one pixel in the images corresponds to 1.58 μm. […]

For `[Ca+2].[Cl-].[Cl-]` [CaCl2, calcium chloride], the “blood flow in microchannel” value (citrate whole blood) was “flows uniformly”, the “thrombus formation in microchannel” value (citrate whole blood) was “No thrombus formation” and the “clotting time (dramatic drop in mean blood flow velocity)” value (whole blood) was about 220 s.
